From patent publication US12691124B2, “Methods of controlling and improving brain health” (ICAHN SCHOOL OF MEDICINE AT MOUNT SINAI, priority 2019, dated 2026)

How the values were obtained:
[1] = test system: primary microglia exposed to lipopolysaccharide (LPS); experiment: LPS-induced gene expression in primary microglia pretreated with IBET858; assay type: cell-based, mouse
Protocol: Primary Microglia Culture. Postnatal day 0 C57/Bl6 mice were decapitated in ice cold HBSS. The forebrain was rapidly dissected and treated as above in order to generate a single cell suspension. 60,000 cells per cm2 were seeded in vented, Poly-D-lysine coated flasks. Mixed glial cultures were maintained in DMEM containing 10% FBS and 1% penicillin/streptomycin for 3 weeks. After three weeks, microglia were isolated by shaking the mixed glial cultures for 4 hours at 360 rpm and re-plated at density on 100,0000 cells/cm2. Cultures were given 24 hours to settle before treatment. Cultures were pre-treated for 30 minutes with either DMSO (0.01%) or 1 uM IBET858. After 30 minutes, LPS (100 ng/ml) was added to the cultures. RNA was isolated with Trizol LS according to the manufacturer's recommendations after 1, 4 and 12 hours of LPS treatment.
To understand if BET proteins regulate the dynamic induction of pro-inflammatory gene networks, primary microglia were exposed to the bacterial cell wall component lipopolysaccharide, LPS. T, which is recognized by Tlr4, triggers a signal cascade that leads to an extensive increase in cytokine and chemokine production which causes significant damage to host tissues if left unrestrained. Nicodeme et al., “Suppression of Inflammation by a Synthetic Histone Mimic,” Nature 468:1119-1123 (2010), which is hereby incorporated by reference in its entirety. As before, microglial identity genes Tyrobp, Hexb and Trem2 were unaffected by IBET858 (FIG. 4B). As expected, LPS causes a time-dependent increase in pro-inflammatory gene expression in microglia (FIGS. 4C-4E). […] BET inhibition specifically decreases the expression of inflammatory genes (Il6, Cd33, and Nlrp3), interferon response pathway (Ifnb, Irf2/9, Mx1) and cell death mediators (Bid, Casp1/4/7/12, Traf1). […] Nicodeme et al., “Suppression of Inflammation by a Synthetic Histone Mimic,” Nature 468:1119-1123 (2010), which is hereby incorporated by reference in its entirety.

BRD4 = target: T1, BRD4 (Mus musculus, UniProt Q9ESU6); experiment: ChIP sequencing of BRD4 chromatin occupancy in neurons; assay type: cell-based
T1 construct: Primary cortical neurons express BRD2/3/4, with BRD2 and BRD4 being the most abundant; endogenous in cells; host or cells: primary cortical neuronal cultures (mouse)
Protocol: Chromatin Immunoprecipitation with Sequencing. Primary cortical neuronal cultures were washed once with PBS then fixed for 10 minutes with a 1% formaldehyde solution in PBS with protease inhibitors (Sigma #P8340) at room temperature. Fixation was quenched adding glycine to a final concentration of 0.125M (5 minutes, room temperature). 10e6 fixed cells were resuspended in 1 ml of lysis buffer (50 mM Hepes KOH, pH7.5, 140 mM NaCl, 1 mM EDTA, 10% glycerol, 0.5% NP-40, 0.25% Triton X-100) and 10 ul of protease inhibitor cocktail (PIC). Samples were rotated for 10 minutes at 4 degrees then spun at 1350 g at 4 C for 10 minutes. Pellets were resuspended in 1 ml of lysis buffer 2 (10 mM Tris-HCl pH8.0, 200 mM NaCl, 1 mM EDTA, 0.5 mM EGTA) and 10 ul PIC.). 5e6 nuclei were sonicated in lysis buffer 3 (10 mM Tris-HCl pH8.0, 100 mM NaCl, 1 mM EDTA, 0.5 mM EGTA, 0.1% Na-Deoxicholate, 0.5% N-Lauroylsarcosine) at 4 degrees for 5 cycles of 30 seconds ON/30 seconds OFF using the Diagenode bioruptor. After, 30 ul of 10% Triton-X100 was added to each sample and then spun for 15 minutes at 20,000 g at 4 degrees. Sonication efficiency was checked by running the samples on a 2% agarose gel to confirm enrichment for fragments from 200-500 bps.
Streptavidin M-280 dynabeads were blocked with 0.5% BSA solution and coupled to 7 ug of antibody (Brd4 #Ab84778, Brd2 Bethyl #A302-583A, Pol2 Ser5 #Ab5408) for at least 8 hours at 4 degrees, rotating. Antibody-coupled beads were then added to sonicated chromatin (20e6 cells for Brd2/Brd4, 10e6 for Pol2) and incubated overnight at 4 degrees. After washing the IPs eight times with wash buffer (50 mM Hepes-KOH pH7.6, 100 mM LiCl, 1 mM EDTA, 1% NP-40, 0.7% Na-Deoxycholate) and once with TE buffer (10 mM Tris-HCl, 1 mM EDTA, 50 mM NaCl), Chromatin was eluted from magnetic beads in 200 ul elution buffer ([…] Tris-HCl pH8.0, 10 mM EDTA, 1% SDS) for 45 minutes at 65 degrees. Samples were de-crosslinked overnight at 65 degrees and proteins and RNA were removed by incubating with RNAse and proteinase k. Samples were purified using the Qiagen PCR purification kit according to the manufacturers protocol.
Samples were end-repaired using the End-IT DNA End-Repair Kit (#ER0720). After 45 minutes incubation, samples were purified using the Qiagen PCR Clean up kit as described above. Samples were adenylated using a reaction mix (200 uM dATP, 1× Klenow buffer NEB2, Klenow Fragment (3′ to 5′ exo-), NEB M0212L) and incubating at 37 degrees for 30 minutes. […] Raw sequencing reads were then aligned to the mouse mm9 genome using the default settings of Bowtie (v2.2.0)87. Only uniquely mapped reads were retained, and the alignments were subsequently filtered using the SAMtools package (v0.1.19)88 to remove duplicate reads. […]

R6/2 mice = experiment: Survival of R6/2 Huntington's mouse model; details: 30 mg/kg i.p. daily from 6 weeks of age for 5 weeks

In the case of CC(=O)N1c2ccc(-c3ccc(CN4CCCCC4)cc3)cc2[C@H](Nc2ccccc2)CC1C (stereo in doubt) [IBET858], the “chemotaxis, cell proliferation and NFkB pathway genes after LPS” value ([1]; 1 μM) is reported as “insensitive”, the “microglial identity genes Tyrobp, Hexb and Trem2 after LPS” value ([1]; 1 μM) is reported as “unaffected” and the LPS gene induction ([1]; 1 μM pretreatment 30 min, LPS 1 h) is reported as “little effect”. For the same compound, the “LPS induced genes inhibited / LPS induced genes” value ([1]; LPS 4 hours) was 514/960, the “LPS induced genes inhibited / LPS induced genes” value ([1]; LPS 12 hours) was 484/747 and the “genes that lose BRD4 at the transcriptional start site” value (BRD4; 6 h IBET858) was 2226 genes. For the same compound, the “genes with gain of BRD4 at the transcriptional start site” value (BRD4; 6 h IBET858) was 295 genes, the “loci with reduced occupancy of BRD4” value (BRD4; DIV7, 6 h IBET858) was 4756 loci and the “loci with increased occupancy of BRD4” value (BRD4; day 7, 6 h IBET858) was 1827 loci. For the same compound, the survival (R6/2 mice) was “rescued survival”.
